Test results published in patent US20090041888A1, “USE OF FORMULATED DIETS PROVIDING IMPROVED DIGESTION IN FISH” (SOUTHERN ILLINOIS UNIVERSITY, priority 2005, published 2009).

Experiments:
[1] = system: hybrid striped bass (Morone chrysops X M. saxatilis); test: Growth and feed efficiency trial of practical diets supplemented with a non-nutritive emulsifier; assay type: in vivo; details: for FCR (feed conversion ratio) / Weight Gain (%): 28 days, initial weight 15 g; for Weight Gain (%): fed daily to satiation
Excerpt: The present example provides details of experiments conducted to evaluate and quantify the effects of a non-nutritive emulsifier upon the growth and feed efficiency of phase-I hybrid striped bass (Morone chrysops×M. saxatilis). Tween-80® (provided as a liquid supplement) was incorporated into practical diets formulated to meet, or exceed, the known nutrient requirements of hybrid striped bass. Diets were formulated at Southern Illinois University using MIXIT 3 WIN (Agricultural Software Consultants, Inc., San Diego) and manufactured as cold pressed pellets.
Fish were stocked at a density of 15 fish per tank. Four practical diets were formulated to meet or exceed the known dietary requirements of juvenile hybrid striped bass. Each diet was supplemented with one of four concentrations of emulsifier providing dietary treatments of 0, 0.5, 1.0, and 2.0% Tween-80®, respectively. Fish were fed daily to satiation and feed consumption was monitored weekly. After 4 weeks, all fish in each tank were weighed to determine growth. Feed consumption was used to calculate feed conversion ratio (g feed:g weight gain).

[2] = system: juvenile sunshine bass Morone chrysops×M. saxatilis; test: Gastric residuum stratification trial with pelleted diets with varied levels of lecithin inclusion; assay type: in vivo; details: 2% BWD meal, 4.5 h post-prandial
Excerpt: Residuum appearance: Nine pellet trained sub-adult spotted bass (mean weight=150 grams) were maintained in isolation in 37.8 L glass aquariums for seven days. During days 1-5, the bass were hand-fed to satiation once daily with either a semi-purified pellet diet (See Table 2), live paper shell crayfish (Orconectes immunis), or live fathead minnows (Pimephales promelas). Three bass were given each dietary treatment. Crayfish and minnows were maintained on the same pelleted diet as the bass and fed to apparent satiation two times daily. On Day 6, food was withheld to allow complete evacuation of gastric contents. On Day 7, the bass were fed that same food as during Days 1-5, at a rate of approximately 2% of their body weight (dry weight of feed/wet weight of bass). Post-prandially (4.5 hours) the bass were dispatched with blunt trauma to the head before immersion in liquid nitrogen until frozen solid (approx. 2 mins.). The bass were stored frozen until the residuum was removed by dissection. The position of the pyloric sphincter was noted relative to the observed strata. Representative residua were photographed. Residuum strata were separated using a razor blade for determination of proximate composition.
Juvenile sunshine bass Morone chrysops×M. saxatilis (n=15) were stocked individually into 110 L tanks and acclimated for a period of five days. […]

[3] = juvenile hybrid striped bass, practical diets

| Molecule | FCR (feed conversion ratio) ([1]; 0.5% Tween-80 in diet) | Weight Gain (%) ([1]; 0.5% Tween-80 in diet) | FCR (feed conversion ratio) ([1]; 1.0% Tween-80 in diet) | Weight Gain (%) ([1]; 1.0% Tween-80 in diet) | FCR (feed conversion ratio) ([1]; 2.0% Tween-80 in diet) | Weight Gain (%) ([1]; 2.0% Tween-80 in diet) | feed conversion compared to fish fed a control diet void of Tween-80 [1, 3] | weight gain compared to fish fed a control diet void of Tween-80 [1, 3] | stratification of the gastric residuum ([2]; lecithin inclusion rates of 0.25, 0.50, 1.00 and 2.00% of pellet weight) | amount of post-prandial water intake into the gastric residuum ([2]; lecithin inclusion rates of 0.50, 1.00 and 2.00%) |
| --- | --- | --- | --- | --- | --- | --- | --- | --- | --- | --- |
| CCCCCCCC/C=C\CCCCCCCC(=O)OCCOCC(OCCO)C1OCC(OCCO)C1OCCO (stereo not shown) [Tween-80] | 1.21 g feed:g gain | 118% | 1.16 g feed:g gain | 140% | 1.23 g feed:g gain | 125% | improved | improved | – | – |
| lecithin (phosphatidyl choline) | – | – | – | – | – | – | – | – | reduce stratification of the gastric residuum | reduce the amount of post-prandial water intake |
